Measurements: the NIST ThermoML archive (doi:10.1021/acs.jced.7b00176)

Assay: xn = mol fraction of the nth substance listed
Details: Liquid, Vibrating tube method

COCCOCCOC [2,5,8-trioxanonane] + CCCCO
Details	mass density [kg/m3]
283.55 K, 100000 kPa, x2 = 0.5469	947.45
283.56 K, 40000 kPa, x2 = 0.5469	918.49
283.56 K, 60000 kPa, x2 = 0.5469	928.98
283.56 K, 80000 kPa, x2 = 0.5469	938.59
283.58 K, 5000 kPa, x2 = 0.5469	897.03
283.58 K, 10000 kPa, x2 = 0.5469	900.4
283.58 K, 20000 kPa, x2 = 0.5469	906.81
283.58 K, 30000 kPa, x2 = 0.5469	912.81
283.59 K, 100 kPa, x2 = 0.5469	893.58
283.59 K, 1000 kPa, x2 = 0.5469	894.22
283.62 K, 100 kPa, x2 = 0.7308	866.59
283.62 K, 1000 kPa, x2 = 0.7308	867.24
283.62 K, 5000 kPa, x2 = 0.7308	870.06
283.62 K, 10000 kPa, x2 = 0.7308	873.45
283.62 K, 20000 kPa, x2 = 0.7308	879.83
283.62 K, 30000 kPa, x2 = 0.7308	885.83
283.62 K, 40000 kPa, x2 = 0.7308	891.47
283.62 K, 60000 kPa, x2 = 0.7308	901.94
283.62 K, 80000 kPa, x2 = 0.7308	911.46
283.62 K, 100000 kPa, x2 = 0.7308	920.22
283.65 K, 100 kPa, x2 = 0.3116	922.56
283.65 K, 5000 kPa, x2 = 0.3116	926
283.65 K, 20000 kPa, x2 = 0.3116	935.72
283.65 K, 30000 kPa, x2 = 0.3116	941.81
283.65 K, 40000 kPa, x2 = 0.3116	947.48
283.65 K, 60000 kPa, x2 = 0.3116	958.06
283.65 K, 80000 kPa, x2 = 0.3116	967.62
283.65 K, 100000 kPa, x2 = 0.3116	976.51
283.66 K, 1000 kPa, x2 = 0.3116	923.21
283.66 K, 10000 kPa, x2 = 0.3116	929.34
283.66 K, 20000 kPa, x2 = 0.8787	855.19
283.66 K, 30000 kPa, x2 = 0.8787	861.18
283.66 K, 40000 kPa, x2 = 0.8787	866.81
283.66 K, 60000 kPa, x2 = 0.8787	877.23
283.66 K, 80000 kPa, x2 = 0.8787	886.62
283.66 K, 100000 kPa, x2 = 0.8787	895.34
283.67 K, 100 kPa, x2 = 0.8787	841.93
283.67 K, 1000 kPa, x2 = 0.8787	842.59
283.67 K, 5000 kPa, x2 = 0.8787	845.4
283.67 K, 10000 kPa, x2 = 0.8787	848.78
283.67 K, 40000 kPa, x2 = 0	978.49
283.67 K, 60000 kPa, x2 = 0	989.12
283.67 K, 80000 kPa, x2 = 0	998.75
283.67 K, 100000 kPa, x2 = 0	1007.71
283.68 K, 10000 kPa, x2 = 0	960.29
283.68 K, 20000 kPa, x2 = 0	966.68
283.68 K, 30000 kPa, x2 = 0	972.8
283.69 K, 100 kPa, x2 = 0	953.48
283.69 K, 1000 kPa, x2 = 0	954.15
283.69 K, 5000 kPa, x2 = 0	956.94
303.46 K, 80000 kPa, x2 = 0.8787	874
303.46 K, 100000 kPa, x2 = 0.8787	883.23
303.47 K, 100 kPa, x2 = 0	933.69
303.47 K, 1000 kPa, x2 = 0	934.43
303.47 K, 30000 kPa, x2 = 0.8787	846.7
303.47 K, 60000 kPa, x2 = 0.8787	863.93
303.48 K, 5000 kPa, x2 = 0	937.55
303.48 K, 10000 kPa, x2 = 0	941.31
303.48 K, 10000 kPa, x2 = 0.8787	833.12
303.48 K, 20000 kPa, x2 = 0.8787	840.14
303.48 K, 40000 kPa, x2 = 0.8787	852.78
303.49 K, 100 kPa, x2 = 0.8787	825.51
303.49 K, 5000 kPa, x2 = 0.8787	829.38
303.49 K, 20000 kPa, x2 = 0	948.42
303.49 K, 30000 kPa, x2 = 0	955.17
303.49 K, 40000 kPa, x2 = 0	961.41
303.49 K, 60000 kPa, x2 = 0	973.02
303.5 K, 1000 kPa, x2 = 0.7308	850.15
303.5 K, 1000 kPa, x2 = 0.8787	826.23
303.5 K, 5000 kPa, x2 = 0.7308	853.29
303.5 K, 10000 kPa, x2 = 0.7308	857.01
303.5 K, 20000 kPa, x2 = 0.7308	864.06
303.5 K, 30000 kPa, x2 = 0.7308	870.65
303.5 K, 40000 kPa, x2 = 0.5469	902.93
303.5 K, 40000 kPa, x2 = 0.7308	876.8
303.5 K, 60000 kPa, x2 = 0.5469	914.29
303.5 K, 60000 kPa, x2 = 0.7308	888.07
303.5 K, 79990 kPa, x2 = 0.7308	898.18
303.5 K, 80000 kPa, x2 = 0	983.33
303.5 K, 80000 kPa, x2 = 0.5469	924.52
303.5 K, 100000 kPa, x2 = 0	992.97
303.5 K, 100000 kPa, x2 = 0.5469	933.93
303.5 K, 100000 kPa, x2 = 0.7308	907.47
303.51 K, 100 kPa, x2 = 0.5469	875.36
303.51 K, 100 kPa, x2 = 0.7308	849.42
303.51 K, 1000 kPa, x2 = 0.5469	876.1
303.51 K, 10000 kPa, x2 = 0.5469	883.02
303.51 K, 20000 kPa, x2 = 0.5469	890.1
303.51 K, 30000 kPa, x2 = 0.5469	896.73
303.52 K, 5000 kPa, x2 = 0.5469	879.25
303.55 K, 100000 kPa, x2 = 0.3116	962.26
303.56 K, 10000 kPa, x2 = 0.3116	911.05
303.56 K, 20000 kPa, x2 = 0.3116	918.17
303.56 K, 30000 kPa, x2 = 0.3116	924.8
303.56 K, 40000 kPa, x2 = 0.3116	931.1
303.56 K, 60000 kPa, x2 = 0.3116	942.54
303.56 K, 80000 kPa, x2 = 0.3116	952.82
303.57 K, 100 kPa, x2 = 0.3116	903.4
303.57 K, 1000 kPa, x2 = 0.3116	904.14
303.57 K, 5000 kPa, x2 = 0.3116	907.29
322.62 K, 100 kPa, x2 = 0	914.41
322.62 K, 1000 kPa, x2 = 0	915.3
322.62 K, 5000 kPa, x2 = 0	918.77
322.62 K, 10000 kPa, x2 = 0	923.02
322.62 K, 20000 kPa, x2 = 0	930.99
322.62 K, 30000 kPa, x2 = 0	938.31
322.62 K, 40000 kPa, x2 = 0	945.16
322.62 K, 60000 kPa, x2 = 0	957.74
322.62 K, 80000 kPa, x2 = 0	968.98
322.62 K, 100000 kPa, x2 = 0	979.2
323.22 K, 100 kPa, x2 = 0.5469	857.29
323.22 K, 1000 kPa, x2 = 0.5469	858.13
323.22 K, 5000 kPa, x2 = 0.5469	861.6
323.23 K, 10000 kPa, x2 = 0.5469	865.79
323.23 K, 20000 kPa, x2 = 0.5469	873.63
323.23 K, 30000 kPa, x2 = 0.5469	880.92
323.23 K, 40000 kPa, x2 = 0.5469	887.67
323.23 K, 60000 kPa, x2 = 0.5469	899.96
323.24 K, 80000 kPa, x2 = 0.5469	911.05
323.24 K, 100000 kPa, x2 = 0.5469	920.96
323.26 K, 100 kPa, x2 = 0.7308	831.9
323.26 K, 1000 kPa, x2 = 0.7308	832.7
323.26 K, 5000 kPa, x2 = 0.7308	836.19
323.26 K, 10000 kPa, x2 = 0.7308	840.37
323.26 K, 20000 kPa, x2 = 0.7308	848.19
